Reference: patent US20220401423A1, “METHODS FOR TREATING INFLAMMATORY BOWEL DISEASE” (Angion Biomedica Corp., priority 2019, published 2022)

Key:
[1] = system: Acetic acid-induced colitis; test: Acetic acid (AA) induced colitis mouse model; format: in vivo
From the text: Acetic acid-induced colitis is a common experimental animal model for IBD. Animals treated with acetic acid develop many pathological and histopathological characteristics in common with human ulcerative colitis. Rectal administration of acetic acid damages the mucosal epithelium and induces ulcerative colitis. The severity of the mucosal lesions that develop in acetic acid-induced colitis depends on the acetic acid concentration and the length of exposure. For example, injection of 25% acetic acid (AA) into the gastric lumen causes larger ulcerative lesions than injection of 5% acetic acid. Different concentrations of acetic acid and different exposure times have been reported to induce IBD in a rat model. Transmural necrosis in all layers of the bowel wall, severe neutrophil infiltration of the intestinal tissue, goblet cell depletion, edema, and submucosal ulceration are common manifestations of this model. Bloody diarrhea, reduction of the intestinal mucus, decreased nucleic acid (DNA and RNA) and total protein content, and increased colon weight and vascular permeability have also been observed. […] Acetic acid-induced colitis is also associated with changes NF-κB, inhibitor of κB (IκB) and IκB kinase expression.
Male CD-1 mice were infused with 4% AA in saline in 150 μL volume through rectal enema under isoflurane anesthesia. A sham group (n=6) received an equivalent volume of saline.
The remaining AA-treated mice (n=9 for each group) were then randomized to vehicle and/or Compound 1 treatment at 50 mg/kg, PO, BID for 3 days.

[2] = system: TNBS-induced colitis; test: TNBS-induced IBD/acute colitis mouse model, dose response (Example 3); format: in vivo
From the text: Intracolonic administration of TNBS (2,4,6-trinitrobenzenesulfonic acid)/ethanol induces a severe illness characterized by bloody diarrhea and a dramatic loss of body weight during the first week with increased colon damage score (Mateus, V., et al. Clin. Exp. Gastroenterol. 2018; 11:325-334). TNBS-induced colitis, characteristic of acute colitis and the early phase of IBD, is a commonly utilized animal model in rodents that shares significant properties with human Crohn's disease. Advantages of this model include reproducibility and technical simplicity (Filipescu, I. E., et al. PLoS One 2018 Aug. 23; 13(8):e0202929). The use of TNBS-induced colitis has been valuable in elucidating the mechanisms that mediate disease immune-pathogenesis. TNBS-induced colitis is a well-validated animal model to assess compounds with potential therapeutic effects such as anti-TNFα, corticosteroids, natural compounds and traditional medicine (Mateus 2018; Filipescu 2018; Wirtz, S. et al. Nat. Protoc. 2017 July; 12(7):1295-1309). Compound 1 was therefore tested in the well-established model of TNBS-induced IBD/Acute Colitis.
In this IBD model, 2,4,6-trinitrobenzenesulfonic acid (TNBS) was used to induce disease. The inflammatory bowel disease (IBD)/acute colitis model was conducted in male CD-1 mice, body weights 30-35 grams, from Charles River Laboratories (CRL). After receipt from the vendor, animals were acclimatized to the animal facility at least 5 days following the animal facility standard operating procedures. All animals were fed the normal chow diet, had access to water ad libitum and housed in a single room of the animal facility with a 12:12 hr light-dark cycle and independent ventilation, temperature and humidity control.
Compound 1 was dissolved in distilled water at 0.9 mg/mL, 2.7 mg/mL and 8.1 mg/mL, and 200 μL was administered via oral gavage into each mouse.
Male CD-1 mice were starved overnight. Then, mice (n=33) were infused with […] (2 mg/mouse) in 50% ethanol in a 100 μL volume via rectal enema under isoflurane anesthesia. A sham group (n=6) received an equal volume of 50% ethanol. […] Remaining Sham (n=4) and TNBS mice (n=7/group) were randomized to vehicle or Compound 1 treatment at 5 mg/kg, 15 mg/kg, and 45 mg/kg, PO, BID for 4 days.
After 4 days of Compound 1 or vehicle treatment, mice were sacrificed. Body weight (FIG. 5), colon length (FIG. 6 and FIG. 8), colon weight (FIG. 7), and gross morphological score/disease severity scores (FIG. 9; normal=0 and severe=4) were recorded. Blood/serum was collected. The mid and distal part of the colon was fixed in 10% neutral buffered formalin and the proximal part of the colon was snap frozen in liquid nitrogen and stored at minus 80° C. until use.
Histological scoring. After overnight fixation in formalin, tissues were dehydrated (graded alcohols) and cleared (xylene) before being embedded in paraffin wax. Sections of tissue were cut and stained with hematoxylin and eosin (H & E) and scored in a blinded manner (FIG. 10). Histological scoring was based on a semi-quantitative scoring system as published (Lab Invest. 1993 August; 69(2):238-49). The following were ranked: the extent of the destruction of normal mucosal architecture (0, normal; 1, 2, and 3, mild, moderate, and extensive damage, respectively), presence and degree of cellular infiltration (0, normal; 1, 2, and 3, mild, moderate, and transmural infiltration, respectively), extent of muscle thickening (0, normal; 1, 2, and 3, mild, moderate, and extensive thickening, respectively), crypt damage/goblet cell depletion (0, no loss, 1, 2, 3 for mild, moderate and extensive loss of goblet cells respectively (FIG. 11). The scores for each feature were summed with a maximum possible colon injury score of 12 (FIG. 12).
Alcian Blue/Fast red staining. Formalin fixed, paraffin embedded colon tissue sections were used for Alcian blue staining to evaluate crypt damage/goblet cell loss. […]

[3] = system: DSS-induced chronic colitis/IBD; test: DSS-induced chronic colitis/IBD mouse model; format: in vivo; details: 50 mg/kg, PO, BID, started 72 hours after DSS, 4 weeks; for colon length: compared to DSS-vehicle cohort
From the text: DSS is a sulfated polymer that alters tight junction proteins, leading to the disruption of the intestinal barrier, and is toxic to epithelial cells. Results obtained in DSS-induced animal IBD models have helped to understand the pathogenesis of IBD and to screen potential therapeutic agents. DSS-induced IBD is simple and reproducible and results in symptoms resembling those of ulcerative colitis. The development of acute, chronic, or relapsing symptoms of IBD is dose-dependent, and the molecular weight of the DSS is key not only in the induction of colitis but also in the location of induction. […] Various DSS dosage and duration are used to induce IBD in some animal models. Following DSS administration, animals usually develop colitis with weight loss and severe, bloody diarrhea. DSS colitis is characterized by mucosal ulceration, leukocyte infiltration, intestinal crypt distortion and epithelial hyperplasia.
Adult male CD-1 mice were fed 3% DSS in drinking water for 5 days with alternate cycles of normal drinking water for 5 days and continued a total of 3 DSS cycles in 4 weeks. This model has been established to induce chronic colitis/IBD. Vehicle (n=10/group) or Compound 1 (50 mg/kg, PO, BID) were administered 72 hours after DSS and continued treatment for 4 weeks, then all mice were sacrificed. A small group (n=6) with normal drinking water was included as a sham control. Gross morphological and histopathological end points were evaluated. Additionally, tissue from the middle colon (100 mg) from all groups was subjected to hydroxyproline assay for collagen estimation as a fibrotic end point.

[4] = system: TNBS-induced colitis; test: TNBS-induced colitis mouse model, 50 mg/kg (Example 5); format: in vivo
Protocol: Using the same TNBS mouse model for IBD as described in Example 3, an experiment was performed with a 50 mg/kg dose of Compound 1, as described below.
Male CD-1 mice were infused with TNBS (2 mg/mouse) in 45% ethanol and 5% PBS in 150 μL volume through rectal enema under isoflurane anesthesia. A sham group (n=6) received an equal volume of 45% ethanol and PBS mixture.
Remaining TNBS mice (n=12/group) were randomized to vehicle or Compound 1 at 50 mg/kg, PO, BID for 3 days.

[5] = system: collagen levels; test: Antifibrotic activity, collagen levels (FIG. 23); details: model not stated
[6] = 50 mg/kg, PO, BID for 3 days, started 72 hours after AA, compared to vehicle cohort
[7] = 15 mg/kg and 45 mg/kg, BID, PO, 4 days, started 3 days after TNBS
[8] = 15 mg/kg and 45 mg/kg, BID, PO, 4 days, compared to pre-treatment and vehicle treated animals
[9] = 50 mg/kg, PO, BID for 3 days, started 72 hours after TNBS, compared to vehicle cohort

COC(=O)c1ccc2c(n1)NC(=O)/C2=C(\Nc1ccc(N(C)C(=O)CN2CCN(C)CC2)cc1)c1ccccc1 [Compound 1, (Z)-methyl 3-(((4-(N-methyl-2-(4-methylpiperazin-1-yl)acetamido)phenyl)amino)(phenyl)methylene)-2-oxo-2,3-dihydro-1H-pyrrolo[2,3-b]pyridine-6-carboxylate]
decrease in colon length [1, 6]: significantly mitigated the decrease | gross morphological colon damage [1, 6]: significantly mitigated | histopathological colon damage (mucosal wall thickness, crypt/villi architecture) [1, 6]: significantly mitigated | AA-induced colitis (colon length, colon gross damage score, histopathological damage score, Alcian blue, H&E staining) ([1]; FIG. 2A-2E): significantly decreased | MPO-staining of colon tissue ([2]; 5 mg/kg and higher, BID, PO, 4 days, versus TNBS+vehicle treated animals): significantly decreased | body weight [2, 7]: significantly restored | colon length [2, 7]: significantly restored | colon weight [2, 7]: significantly restored | TNBS-induced goblet cell loss (Alcian Blue staining) [2, 8]: significantly reduced | colon histology (H&E histological scoring) [2, 8]: markedly improved | Disease Severity Index ([2]; 15 mg/kg and 45 mg/kg, BID, PO, 4 days, score 0 (normal)-4 (severe)): marked improvement | F4/80-staining of colon tissue ([2]; 15 mg/kg and higher, BID, PO, 4 days, versus TNBS+vehicle treated animals): significantly decreased | IBD symptoms (body weight, colon length, colon weight, disease severity index) ([2]; FIG. 5-9): recover from IBD symptoms | macroscopic colon damage score (appearance, inflammation, rectal bleeding) [3]: decreased | histopathological injury score (crypt damage, epithelial erosion, inflammatory cell infiltration) ([3]; H&E stained colon sections): decreased | colon length [3]: significantly increased | colon length ([3]; listed as test compound): significantly restored | colonic hydroxyproline (HYP) ([3]; middle colon tissue): decreased | colon architecture (Alcian blue staining for goblet cells of crypt/villi) [4, 9]: preserved | colon damage score [4, 9]: decreased | colon histopathological score [4, 9]: decreased | colon length [4, 9]: restored | mortality [4, 9]: significantly decreased | TNBS-induced increase in serum cytokines (interleukin-1α, TNFα, PDGF) ([4]; 50 mg/kg, PO, BID for 3 days, serum): significantly blocked | IBD symptoms (colon length, colon gross damage score, Alcian blue staining of goblet cells, colon histopathological score) ([4]; FIG. 25A-25F): recover from IBD symptoms | survival ([4]; TNBS induced colitis mortality model, FIG. 3): increased | collagen levels (antifibrotic activity) [5]: reduced
